In assay [1] the test system is purified secondary alcohol dehydrogenase. The experiment in a line: substrate specificity, electron acceptor and stoichiometry of purified yeast SADH. The conditions noted are these: for oxidation by the purified yeast secondary alcohol dehydrogenase: examined spectrophotometrically.
Assay [2] concerns cell suspensions of C1-utilizers. The experiment in a line: studies on production of 2-butanone from 2-butanol by cell suspensions of the strains tested. It counts as cell-based. The conditions noted are these: for inhibition of production of 2-butanone from 2-butanol by cell suspensions: strains tested. From the text: The following summarizes tests conducted on the optimal conditions for the production of methyl ketones from C3 -C6 sec. alcohols.
The substrate specificity for the oxidation of C3 -C6 secondary alcohols by the strains of C1 -utilizers was studied.

Assay [3] concerns purified secondary alcohol dehydrogenase (SADH). The experiment in a line: inhibition of purified SADH by metal-chelating agents, thioreagents, metals. Format: biochemical, Pseudomonas sp. ATCC 21439. Here is the method:
Secondary alcohol dehydrogenase (SADH) from an obligate methanol utilizer, Pseudomonas sp. ATCC 21439 was purified as follows. […] 0.05 M sodium phosphate buffer, pH 7.0 with 0.5 mM dithiothretol (buffer A) and were disrupted sonically (5×1 min.). The crude extract was separated by centrifugation. The crude extract was heat-treated at 50° C. in a water bath for 10 minutes. The resulting precipitate was removed by centrifugation. To the supernatant solution, 25 ml of protamine sulfate solution (2% solution in 0.1 M Tris base) was added dropwise with continuous stirring. After standing for 30 minutes, the extract was centrifuged. The supernatant solution was fractionated with solid ammonium sulfate. […] This DEAE-cellulose eluate was concentrated by ammonium sulfate fractionation. Material precipitating between 30 and 50% ammonium sulfate saturation was collected by centrifugation and dialyzed overnight against A. This fraction was further washed and filtered through an Amicon unit with XM 50 membrane. The concentrated fraction (6 ml) inside the Amicon unit was applied to an Affi-Gel Blue column (0.8 cm×18 cm) which had been equilibrated with buffer A for affinity chromatography. The column was washed overnight with buffer A (0.18 ml./min.) and then was eluted with buffer A containing 5 mM NAD. Each 1 ml. fraction was collected.
The purified secondary alcohol dehydrogenase enzyme (SADH) may be used directly for converting C3 -C6 secondary alcohols to the corresponding methyl ketones by the procedures described above; however, a source of NAD^+ must be added to the reaction medium. One can determine the NAD-linked secondary alcohol dehydrogenase activity with a fluorescence spectrophotometer (Perkin Elmer, Model MPF 44A) by following the formation of reduced NAD (Ex 340 nm, Em 460 nm). The assay system (3 ml.) will typically contain: sodium phosphate buffer pH 7.0, 150 μmol; NAD 1.0 μmol; a given amount of enzyme preparation; and 20 μmol secondary alcohol. The reaction is started by the addition of secondary alcohol. One unit of SADH enzyme activity represents the reduction of one nmole NAD per minute.
The effect of metal-chelating agents and thioreagents on the activity of the purified SADH enzyme were studied. […] The possibility of ethanol or n-propanol as an inhibitor was studied.

Assay [4] deals with cell-free particulate fractions of methane-grown methylotrophs. The experiment in a line: inhibitors and electron donors of n-alkane conversion to sec. alcohols by cell-free particulate fractions. Format: biochemical. The text has this:
The conditions for preparing the cell suspensions or the cell-free particulate fractions from methane-grown methylotroph microorganisms is the same as described above.

Assay [5] deals with Methylococcus capsulatus CRL M1 NRRL B-11,219. The experiment in a line: conversion of n-alkanes to oxidation products by cell suspensions (Table XVIII). It counts as cell-based. Conditions: methane-grown cell suspension, pH 7.0.
Protocol: (§1) ^(a) Cell-suspensions of methanegrown methylotroph microorganisms
(§2) indicated in 0.15 M phosphate buffer, pH 7.0 incubated in the alkanes as
(§3) indicated at 3° C. The oxidation products were determined by g.l.c
Assay [6] concerns Methylosinus trichosporium OB3b NRRL B-11,196. The assay is described as above. Conditions: methane-grown cell suspension, pH 7.0. It counts as cell-based.
Protocol: as §1, §2, §3
Another assay concerns cell-free SADH system. The experiment in a line: cofactor requirement of the cell-free SADH systems. Conditions: cell-free systems tested. It counts as biochemical. Here is the method: To prepare the cell-free secondary alcohol dehydrogenase (SADH) system, the washed cells were disrupted with a Wave Energy Ultrasonic Oscillator, Model W201 (Wave Energy System, Inc., Newtown, Pa.) and centrifuged at 20,000×g. for 30 minutes. […] The enzyme activity was measured with a fluorescence spectrophotometer (Perkin Elmer, Model MPF 44A) by following the formation of reduced NAD (EX 340 nm, Em 460 nm). The formation of reduced NAD was also followed with an absorption spectrophotometer at 340 nm. The assay system (3 ml.) contained: potassium phosphate buffer pH 7.0; 150 μmol.; NAD 1 μmol.; a given amount of enzyme preparation; and secondary alcohol 10 μmol. The reaction was started by the addition of substrate. One unit of enzyme activity represents the reduction of one μmole NAD per minute. Protein concentrations were determined by the Lowry method (J. Biol. Chem., 193: 255-275 (1951)).

The subject of assay [7] is purified secondary alcohol dehydrogenase (SADH). The experiment in a line: substrate specificity and Michaelis constants of purified SADH. It counts as biochemical, Pseudomonas sp. ATCC 21439.
Where [8] appears, read: each inhibitor at a final concentration of 1 mM, measured spectrofluorometrically.

This is an account of results in patent US4250259A, “Microbiological production of ketones from C3 -C6 secondary alcohols” (priority 1979, dated 1981).

Read-outs that look alike come from different tables or passages of the source.

Regarding `CC(O)CO` (stereo not shown) [1,2-propandiol], the “oxidation by the purified yeast secondary alcohol dehydrogenase” value in assay [1] is reported as “not oxidized”.
For the compound `CCCCCC(C)O` (stereo not shown) [2-heptanol], the “rate of oxidation of secondary alcohols by strains of C1-utilizers” value in assay [2] (cell suspensions) is on record as “much slower rate”. Also, the “oxidation by the purified yeast secondary alcohol dehydrogenase” value in assay [1] is listed as “not oxidized”.
Consider `CCCCCCC(C)O` (stereo not shown) [2-octanol], for which the “oxidation by the purified yeast secondary alcohol dehydrogenase” value in assay [1] is on record as “not oxidized”.
With `O=C(O)c1cc(SSc2ccc([N+](=O)[O-])c(C(=O)O)c2)ccc1[N+](=O)[O-]` [5,5'-dithiobis(2-nitrobenzoic acid)], the “inhibition of SADH activity” value in assay [3] is reported as “inhibited”. For the same compound, in assay [3] (setting [8]), the “% inhibition of SADH activity” value worked out at 100%.
Consider `Oc1cccc2cccnc12` [8-hydroxyquinoline], for which the “inhibition of conversion of n-alkanes to sec. alcohols (words)” value (from here on “inhibition of conversion of n-alkanes”) in assay [4] is listed as “inhibited”.
In the case of `[Co+2]` [Co^++], the “% inhibition of SADH activity” value in assay [3] (setting [8]) turned out to be 0%.
As for `O=C(O)CN(CCN(CC(=O)O)CC(=O)O)CC(=O)O` [EDTA], in assay [3], the “% inhibition of SADH activity” value is reported as 63%.
For `CC` [Ethane], the “Conversion Rate, product Ethanol” value came to 2.0 μmoles/hr./mg./protein in assay [5] and 1.3 μmoles/hr./mg./protein in assay [6].
As for `Cc1cc2nc3c(=O)[nH]c(=O)nc-3n(C[C@H](O)[C@H](O)[C@H](O)COP(=O)(O)OP(=O)(O)OC[C@H]3O[C@@H](n4cnc5c(N)ncnc54)[C@H](O)[C@@H]3O)c2cc1C` [FAD, flavin adenine dinucleotide, reference compound], the “effectiveness as cofactor for oxidation of 2-butanol / C3-C6 secondary alcohols” value in the assay with cell-free SADH system is on record as “not effective”. Moreover, the “ability to act as electron acceptor/carrier for the purified enzyme” value in assay [1] was “could not act as electron carrier”.
Regarding `C` [Methane], the “Conversion Rate, product Methanol” value in assay [5] ([…] phosphate buffer) stood at 2.5 μmoles/hr./mg./protein; in assay [6] ([…] phosphate buffer), 1.5 μmoles/hr./mg./protein.
As to `[Mg+2]` [Mg^++], in assay [3] (setting [8]), the “% inhibition of SADH activity” value is 0%.
On the same count and under the same terms, the same measure for `[Mn+2]` [Mn^++]: 0%.
Turning to `CCN1C(=O)C=CC1=O` [N-ethylmalemide, N-ethylmaleimide], the “inhibition of SADH activity” value in assay [3] is listed as “not inhibited”. For the same compound, the “% inhibition of SADH activity” value in assay [3] (setting [8]) came to 6%.
`NC(=O)C1=CN([C@@H]2O[C@H](COP(=O)(O)OP(=O)(O)OC[C@H]3O[C@@H](n4cnc5c(N)ncnc54)[C@H](OP(=O)(O)O)[C@@H]3O)[C@@H](O)[C@H]2O)C=CC1` [NAD(P)H]: the “effectiveness as cofactor for oxidation of 2-butanol / C3-C6 secondary alcohols” value in the assay on cell-free SADH system is recorded as “not effective”.
For the compound `NC(=O)C1=CN([C@@H]2O[C@H](COP(=O)(O)OP(=O)(O)OC[C@H]3O[C@@H](n4cnc5c(N)ncnc54)[C@H](O)[C@@H]3O)[C@@H](O)[C@H]2O)C=CC1` [NADH, reduced nicotinamide adenine dinucleotide], in assay [4], the “use as electron donor for hydroxylation of n-alkanes” value was “requires”.
As to `NC(=O)c1ccc[n+]([C@@H]2O[C@H](COP(=O)(O)OP(=O)(O)OC[C@H]3O[C@@H](n4cnc5c(N)ncnc54)[C@H](OP(=O)(O)O)[C@@H]3O)[C@@H](O)[C@H]2O)c1` [NADP, reference compound], the “effectiveness as cofactor for oxidation of 2-butanol / C3-C6 secondary alcohols” value in the assay on cell-free SADH system is “not effective”. Also, in assay [1], the “ability to act as electron acceptor/carrier for the purified enzyme” value is “could not act as electron carrier”.
Regarding `NC(=O)C1=CN([C@@H]2O[C@H](COP(=O)(O)OP(=O)(O)OC[C@H]3O[C@@H](n4cnc5c(N)ncnc54)[C@H](OP(=O)(O)O)[C@@H]3O)[C@@H](O)[C@H]2O)C=CC1` [NADPH, reduced nicotinamide adenine dinucleotide phosphate], the “use as electron donor for hydroxylation of n-alkanes” value in assay [4] was “could also be utilized as an electron donor”.
On to `[N-]=[N+]=[N-]` [Sodium azide], for which the “% inhibition of SADH activity” value in assay [3] (setting [8]) was found to be 10%.
As for `NC(N)=S` [Thiourea], the “inhibition of conversion of n-alkanes” value in assay [4] is “inhibited”. The “inhibition of production of 2-butanone from 2-butanol by cell suspensions” value in assay [2] is “not inhibited”. The “inhibition of SADH activity” value in assay [3] was “not inhibited”. Also, in assay [3] (setting [8]), the “% inhibition of SADH activity” value is given as 0%.
Consider `[Zn+2]` [Zn^++], for which the “stimulation of SADH activity” value in assay [3] (addition of exogenous zinc) is “did not stimulate”. Also, the “% inhibition of SADH activity” value in assay [3] (setting [8]) was found to be 0%.
For the compound `CC=O` [acetaldehyde], the “oxidation by purified SADH” value in assay [7] is “lower rate”.
In the case of `O=Cc1ccccc1` [benzaldehyde], the “oxidation by purified SADH” value in assay [7] is on record as “not oxidized”.
For the compound `CCCCO` [butan-1-ol], in assay [1], the “oxidation by the purified yeast secondary alcohol dehydrogenase” value is “not oxidized”.
As to `CCC(O)CO` (stereo not shown) [butane 1,2-diol], the “oxidation by purified SADH” value in assay [7] was “not oxidized”. Also, the “oxidation by the purified yeast secondary alcohol dehydrogenase” value in assay [1] is on record as “not oxidized”.
With `CC(O)CCO` (stereo not shown) [butane 1,3-diol], in assay [7], the “oxidation by purified SADH” value is given as “lower rate”. In assay [1], the “oxidation by the purified yeast secondary alcohol dehydrogenase” value is given as “not oxidized”.
In the case of `CC(O)C(C)O` (stereo not shown) [butane 2,3-diol], the “oxidation by purified SADH” value in assay [7] is listed as “lower rate”.
As for `[Cu+2]` [cupric], the “% inhibition of SADH activity” value in assay [3] (setting [8]) came to 25%.
Take `OC1CCCCC1` [cyclohexanol]: the “oxidation by purified SADH” value in assay [7] is “lower rate”.
On to `O=C1C(Cl)=CC(=Nc2ccc(O)cc2)C=C1Cl` [dichlorophenol indophenol, 2,6-dichlorophenol indophenol, reference compound], for which, in the assay on cell-free SADH system, the “effectiveness as cofactor for oxidation of 2-butanol / C3-C6 secondary alcohols” value was “not effective”. In addition, the “ability to act as electron acceptor/carrier for the purified enzyme” value in assay [1] was “could not act as electron carrier”.
In the case of `CCO` [ethanol], in assay [1], the “oxidation by the purified yeast secondary alcohol dehydrogenase” value is “not oxidized”. Moreover, the “inhibition of SADH activity” value in assay [3] is “did not inhibit”.
As for `[Fe+3]` [ferric], the “% inhibition of SADH activity” value in assay [3] (setting [8]) came to 35%.
On the same count and under the same terms, the value for `[Fe+2]` [ferrous] was 50%.
In the case of `C=O` [formaldehyde], in assay [7], the “oxidation by purified SADH” value was “not oxidized”.
Regarding `O=C(O)CI` [iodoacetic acid], in assay [3], the “% inhibition of SADH activity” value came to 0% and the “inhibition of SADH activity” value was “not inhibited”.
Turning to `CC(C)CO` [isobutanol], the “oxidation by purified SADH” value in assay [7] was “not oxidized”.
As for `CO` [methanol], the “oxidation by the purified yeast secondary alcohol dehydrogenase” value in assay [1] is listed as “not oxidized”.
Take `CCCO` [n-propanol]: the “oxidation by the purified yeast secondary alcohol dehydrogenase” value in assay [1] was “not oxidized”. The “inhibition of SADH activity” value in assay [3] is listed as “did not inhibit”.
On to `[Ni+2]` [nickel], for which, in assay [3] (setting [8]), the “% inhibition of SADH activity” value was determined as 20%.
Regarding `CCCCCO` [pentan-1-ol], the “oxidation by the purified yeast secondary alcohol dehydrogenase” value in assay [1] is listed as “not oxidized”.
On to `Oc1ccccc1` [phenol], for which the “oxidation by purified SADH” value in assay [7] is listed as “not oxidized”.
Turning to `C=CC` [propylene], the entries for the “inhibition of conversion of n-alkanes” value in assay [4] and in assay [4] (listed as Propylene) were “inhibited” and “inhibit”, respectively.
As to `CCC=O` [ropanal], the “oxidation by purified SADH” value in assay [7] is on record as “lower rate”. For the same compound, the “relative percent rate of oxidation by SADH” value in assay [7] (2-butanol = 100%) is 2%.
As to `O=C(O)CCC(=O)O` [succinic acid], the “oxidation by purified SADH” value in assay [7] was “not oxidized”.
Regarding `NNC(N)=S` [thiosemicarbazide], the “inhibition of conversion of n-alkanes” value in assay [4] is “inhibited”.
For `c1ccc(-c2ccccn2)nc1` [α,α-bipyridyl], in assay [4], the “inhibition of conversion of n-alkanes” value was “inhibited”. The “inhibition of production of 2-butanone from 2-butanol by cell suspensions” value in assay [2] was “inhibited”. Further, in assay [3] (setting [8]), the “% inhibition of SADH activity” value was 70%.
cytochrome c [reference compound]: in assay [1], the “ability to act as electron acceptor/carrier for the purified enzyme” value was “could not act as electron carrier”.
